From patent US11795460B2, “Compositions and methods for TTR gene editing and treating ATTR amyloidosis” (Intellia Therapeutics, Inc., priority 2017, dated 2023) come the findings set out here.

Data set [1] relates to TTR. Put plainly: TTR editing in primary cyno hepatocytes electroporated with Spy Cas9 protein and dgRNAs (Tables 10, 11). The conditions noted are these: Table 10; primary cyno hepatocytes electroporated with Spy Cas9 protein (RNP) and dgRNAs. Type of data set: cell-based, cynomolgus monkey. Here is the method:
Primary liver hepatocytes. Primary human liver hepatocytes (PHH) and primary cynomolgus liver hepatocytes (PCH) (Gibco) were cultured per the manufacturer's protocol (Invitrogen, protocol 11.28.2012). In brief, the cells were thawed and resuspended in hepatocyte thawing medium with supplements (Gibco, Cat. CM7000) followed by centrifugation at 100 g for 10 minutes for human and 80 g for 4 minutes for cyno. The supernatant was discarded and the pelleted cells resuspended in hepatocyte plating medium plus supplement pack (Invitrogen, Cat. A1217601 and CM3000). Cells were counted and plated on Bio-coat collagen I coated 96-well plates (ThermoFisher, Cat. 877272) at a density of 33,000 cells/well for human or 60,000 cells/well for cyno (or 65,000 cells/well when assaying effects on TTR protein, described further below). Plated cells were allowed to settle and adhere for 6 or 24 hours in a tissue culture incubator at 37° C. and 5% CO2 atmosphere. After incubation cells were checked for monolayer formation and media was replaced with hepatocyte culture medium with serum-free supplement pack (Invitrogen, Cat. A1217601 and CM4000).
[…] formation was performed prior to electroporation or transfection of Spy Cas9 protein loaded with guide RNAs (RNPs) onto cells. For dual guide (dgRNAs), individual crRNA and trRNA was pre-annealed by mixing equivalent amounts of reagent and incubating at 95° C. for 2 min and cooling to room temperature. Single guide (sgRNAs) were boiled at 95° C. for 2 min and cooling to room temperature. The boiled dgRNA or sgRNA was incubated with Spy Cas9 protein in Optimem for 10 minutes at room temperature to form a ribonucleoprotein (RNP) complex.
For RNP electroporation into primary human and cyno hepatocytes, the cells are thawed and resuspended in Lonza electroporation Primary Cell P3 buffer at a concentration of 2500 cells per μL for human hepatocytes and 3500 cells per μL for cyno hepatocytes. A volume of 20 μL of resuspended cells and 5 μL of RNP are mixed together per guide. 20 μL of the mixture is placed into a Lonza electroporation plate. The cells were electroporated using the Lonza nucleofector with the preset protocol EX-147. Post electroporation, the cells are transferred into a Biocoat plate containing pre-warmed maintenance media and placed in a tissue culture incubator at 37° C. and 5% CO2.
Transfected cells were harvested post-transfection at 24, 48, or 72 hours. The genomic DNA was extracted from each well of a 96-well plate using 50 μL/well BuccalAmp DNA Extraction solution (Epicentre, Cat. QE09050) per manufacturer's protocol. All DNA samples were subjected to PCR and subsequent NGS analyses, as described herein.
To quantitatively determine the efficiency of editing at the target location in the genome, sequencing was utilized to identify the presence of insertions and deletions introduced by gene editing.
Primers were designed around the target site within the gene of interest (e.g. TTR), and the genomic area of interest was amplified.
Additional PCR was performed per the manufacturer's protocols (Illumina) to add chemistry for sequencing. The amplicons were sequenced on an Illumina MiSeq instrument. The reads were aligned to a reference genome (e.g., the human reference genome (hg38), the cynomologus reference genome (mf5), the rat reference genome (rn6), or the mouse reference genome (mm10)) after eliminating those having low quality scores. The resulting files containing the reads were mapped to the reference genome (BAM files), where reads that overlapped the target region of interest were selected and the number of wild type reads versus the number of reads which contain an insertion, substitution, or deletion was calculated.
The editing percentage (e.g., the “editing efficiency” or “percent editing” or “indel frequency”) is defined as the total number of sequence reads with insertions/deletions (“indels”) or substitutions over the total number of sequence reads, including wild type. […]

The subject of data set [2] is TTR. As to the kind of experiment: TTR editing in HUH7 cells transfected with Spy Cas9 mRNA and dgRNAs (Table 5). Type of data set: cell-based, human. The note with it: HUH7 cells co-transfected with Spy Cas9 mRNA (SEQ ID NO:2) and dgRNAs. In short, it runs like this:
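Percent editing is the share of NGS reads at the TTR target carrying insertions, deletions or substitutions, from amplicon sequencing of genomic DNA harvested at 24, 48 or 72 h. HUH7 cells first received Cas9 mRNA (100 ng) by lipofection, then dual-guide RNA (crRNA and tracer, 25 nM each).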

With “ACGUGUCUUCUCUACACCCA (tested as dual guide RNA, chemistry not given here) [CR005302]”, in the data set on TTR [1], the “Avg % Deletion” value was 0.08%, the “Avg % Edit” value amounted to 1.34% and the “Avg % Insert” value is recorded as 1.26%.
Take “GGCUGUCGUCACCAAUCCCA (tested as dual guide RNA, chemistry not given here) [CR003391]”: in the data set on TTR [2], the “Avg % Deletion” value is on record as 59.70%, the “Avg % Edit” value amounted to 61.31% and the “Avg % Insert” value was found to be 2.10%. For the same sequence, in the data set on TTR [1], the “Avg % Deletion” value was determined as 0.71%, the “Avg % Edit” value stood at 36.44% and the “Avg % Insert” value is on record as 35.73%.
In the case of “CCGUGGUGGAAUAGGAGUAG (tested as dual guide RNA, chemistry not given here) [CR003386]”, in the data set with TTR [2], the “Avg % Deletion” value was 69.34%, the “Avg % Edit” value came out at 69.40% and the “Avg % Insert” value stood at 0.53%. Moreover, in the data set on TTR [1], the “Avg % Deletion” value was determined as 2.03%, the “Avg % Edit” value is listed as 5.54% and the “Avg % Insert” value stood at 3.51%.
Regarding “CUGGUAUUUGUGUCUGAGGC (tested as dual guide RNA, chemistry not given here) [CR003341]”, in the data set with TTR [2], the “Avg % Deletion” value worked out at 13.20%, the “Avg % Edit” value was found to be 20.58% and the “Avg % Insert” value is given as 7.78%. In the data set on TTR [1], the “Avg % Deletion” value is given as 0.77%, the “Avg % Edit” value worked out at 8.43% and the “Avg % Insert” value was 7.66%.
Regarding “GACGACAGCCGUGGUGGAAU (tested as dual guide RNA, chemistry not given here) [CR003388]”, in the data set on TTR [2], the “Avg % Deletion” value turned out to be 56.45%, the “Avg % Edit” value is recorded as 59.48% and the “Avg % Insert” value was found to be 3.88%. Besides, in the data set on TTR [1], the “Avg % Deletion” value amounted to 0.22%, the “Avg % Edit” value is given as 6.81% and the “Avg % Insert” value was 6.59%.
Regarding “GCAUGGGCUCACAACUGAGG (tested as dual guide RNA, chemistry not given here) [CR003362]”, in the data set with TTR [2], the “Avg % Deletion” value is given as 23.76%, the “Avg % Edit” value worked out at 26.43% and the “Avg % Insert” value is listed as 3.43%. In the data set with TTR [1], the “Avg % Deletion” value is 0.22%, the “Avg % Edit” value is recorded as 4.59% and the “Avg % Insert” value was 4.36%.
Regarding “ACUGAGGAGGAAUUUGUAGA (tested as dual guide RNA, chemistry not given here) [CR003363]”, in the data set with TTR [2], the “Avg % Deletion” value is 23.78%, the “Avg % Edit” value stood at 41.01% and the “Avg % Insert” value is 17.83%. In the data set on TTR [1], the “Avg % Deletion” value was 2.39%, the “Avg % Edit” value came to 15.64% and the “Avg % Insert” value is listed as 13.24%.
Regarding “CAGAGGACACUUGGAUUCAC (tested as dual guide RNA, chemistry not given here) [CR003343]”, in the data set with TTR [2], the “Avg % Deletion” value amounted to 66.97%, the “Avg % Edit” value is reported as 76.13% and the “Avg % Insert” value was determined as 9.58%.
In the same order, the values of “GCGGCAAUGGUGUAGCGGCG (tested as dual guide RNA, chemistry not given here) [CR003377]” are 29.89%, 34.93% and 5.59%.
Turning to “GCUGCAUGGGCUCACAACUG (tested as dual guide RNA, chemistry not given here) [CR003361]”, in the data set on TTR [2], the “Avg % Deletion” value came to 22.44%, the “Avg % Edit” value was found to be 28.68% and the “Avg % Insert” value stood at 6.84%. In addition, in the data set with TTR [1], the “Avg % Deletion” value amounted to 0.08%, the “Avg % Edit” value was determined as 4.53% and the “Avg % Insert” value is 4.46%.
“ACCUCUGCAUGCUCAUGGAA (tested as dual guide RNA, chemistry not given here) [CR003371]”: in the data set with TTR [2], the “Avg % Deletion” value was found to be 35.65%, the “Avg % Edit” value worked out at 40.47% and the “Avg % Insert” value was found to be 6.07%. In the data set on TTR [1], the “Avg % Deletion” value turned out to be 0.14%, the “Avg % Edit” value worked out at 1.83% and the “Avg % Insert” value worked out at 1.69%.
“UGAAUCCAAGUGUCCUCUGA (tested as dual guide RNA, chemistry not given here) [CR005303]”: in the data set with TTR [1], the “Avg % Deletion” value came to 0.56%, the “Avg % Edit” value turned out to be 59.28% and the “Avg % Insert” value worked out at 58.72%.
“GUCACAGAAACACUCACCGU (tested as dual guide RNA, chemistry not given here) [CR005301]”: in the data set on TTR [1], the “Avg % Deletion” value came to 0.42%, the “Avg % Edit” value was determined as 46.76% and the “Avg % Insert” value came to 46.34%.
Consider “GCAACUUACCCAGAGGCAAA (tested as dual guide RNA, chemistry not given here) [CR003356]”, for which, in the data set with TTR [2], the “Avg % Deletion” value is listed as 31.31%, the “Avg % Edit” value is 49.63% and the “Avg % Insert” value is listed as 18.98%.
In the same order, the values of “AGGCAGUCCUGCCAUCAAUG (tested as dual guide RNA, chemistry not given here) [CR003348]” are 22.71%, 57.14% and 36.08%.
In the same order, the values of “AGACACCAAAUCUUACUGGA (tested as dual guide RNA, chemistry not given here) [CR003367]” are 33.48%, 66.29% and 33.62%.
Regarding “GCAGGGCGGCAAUGGUGUAG (tested as dual guide RNA, chemistry not given here) [CR003380]”, in the data set with TTR [2], the “Avg % Deletion” value came to 29.29%, the “Avg % Edit” value is 31.76% and the “Avg % Insert” value was 3.29%.
Regarding “CUGCUCCUCCUCUGCCUUGC (tested as dual guide RNA, chemistry not given here) [CR003335]”, in the data set with TTR [2], the “Avg % Deletion” value is on record as 27.57%, the “Avg % Edit” value was 31.95% and the “Avg % Insert” value is reported as 4.62%.
As for “AGCCUUUCUGAACACAUGCA (tested as dual guide RNA, chemistry not given here) [CR003351]”, in the data set on TTR [2], the “Avg % Deletion” value turned out to be 27.49%, the “Avg % Edit” value is 63.51% and the “Avg % Insert” value worked out at 36.87%.
As to “CUUCUCUACACCCAGGGCAC (tested as dual guide RNA, chemistry not given here) [CR003342]”, in the data set on TTR [2], the “Avg % Deletion” value was found to be 44.66%, the “Avg % Edit” value was 45.14% and the “Avg % Insert” value is 1.23%.
Turning to “UUCUUUGGCAACUUACCCAG (tested as dual guide RNA, chemistry not given here) [CR003357]”, in the data set on TTR [2], the “Avg % Deletion” value stood at 30.82%, the “Avg % Edit” value was found to be 36.31% and the “Avg % Insert” value is listed as 6.37%.
Take “CCCAGAGGCAAAUGGCUCCC (tested as dual guide RNA, chemistry not given here) [CR003355]”: in the data set on TTR [2], the “Avg % Deletion” value is 30.31%, the “Avg % Edit” value was 38.83% and the “Avg % Insert” value is given as 9.40%.
In the case of “CCCCUACUCCUAUUCCACCA (tested as dual guide RNA, chemistry not given here) [CR003385]”, in the data set with TTR [1], the “Avg % Deletion” value is 4.12%, the “Avg % Edit” value turned out to be 30.96% and the “Avg % Insert” value came to 26.84%.
